Assay results from US4604383A, “Pyrrolidin-2-ones and medicaments containing them” (Societe Anonyme Styled: SANOFI, priority 1983, dated 1986).
Like-named read-outs stand apart in the source and are kept apart here.

Key:
[1] = Effect on spontaneous motility (Boissier and Simon activity test, actimetric cages); format: in vivo, mouse (CD1 Charles Rivers female mice); details: mouse; for Locomotor activity, score percent/controls: 100 mg/kg p.os., 45 min after administration, 10 min recording, * P <= 0.05, ** P <= 0.01; for Effect on spontaneous motility (in words): oral dose of 100 mg/kg
Procedure: The spontaneous motility of the animals was measured by means of the activity test developed by Boissier and Simon, Arch. Int. Pharmacocyn., 1965, 158, 212-221. The equipment is composed of actimetric cages, type Apelab (26×21.5×10 cm), traversed by two light rays which fall on a photoelectric cell. The batches were constituted by CD1 Charles Rivers female mice, of weight comprised between 20 and 24 g. The animals were placed individually in cages 45 minutes after oral administration of the products at the dose of 100 mg/kg. Each traversal by a light beam was counted by an individual counter. The scores corresponding to the movements of the animals were recorded for 10 minutes, and compared with the scores taken on batches of control animals, treated only with the vehicle (5% gum arabic).

[2] = Acute toxicity, determination of the lethal dose in the mouse; details: in vivo, po, read-out: Percent toxicity (animals which die in 72 hours)
Procedure: The toxicity of the products according to the invention was studied: the products were administered orally, to batches of 5 CD Charles Rivers female mice, of weights comprised between 20 and 24 g. The toxicity was noted during the 72 hours which followed the administration of the products.
The results expressed as a percentage of animals which die in the 72 hours following the oral administration of the products, are noted in the preceding table.

[3] = Potentiation of narcosis with pentobarbital (loss of righting reflex); format: in vivo, mouse (CD1 Charles Rivers mice); details: mouse, 60 min before pentobarbital 20 mg/kg i.p.; for Potentiation of pentobarbital, percent of animals in narcosis: products at 100 mg/kg p.os.; for ED50: po, p.os., probit method, confidence limits in parentheses, P <= 0.05
Procedure: For the purpose of evaluating the hypnogenic power of the products, their capacity to potentiate the effects of a subnarcotic dose of pentabarbital in the mouse was studied. The batches were constituted by 10 CD1 Charles Rivers mice, of weight comprised between 20 and 24 g.
The pentobarbital (20 mg/kg, i.p.) was administered 60 minutes after administration of the products. The drowsiness criterion taken was the loss of the righting reflex.

[4] = Antagonism of the convulsions induced by electric shock; format: in vivo, mouse (CD1 Charles Rivers mice); details: mouse, oral, 60 min before electroshock; probit method, confidence limits in parentheses, p <= 0.05; read-out: Median effective dose (ED50) of electric shock antagonism
Procedure: (§1) The anticonvulsant effect of the products in the mouse was evaluated on a model of convulsions caused by electric shock, and on 2 models of convulsions induced by chemical agents: bicuculline and 3-mercaptopropionic acid.
The test was slightly modified from that of Swinyard et al., J. Pharm. Exp. Ther., 1952, 106, 319-330 and Asami et al. Arzneim. Forsch., 1974, 24 (1), 1563-1568. The equipment was composed of a Racia shock generator provided with two occular electrodes delivering a current of 60 volts for 0.3 seconds. The batches were constituted by 10 CD1 Charles Rivers mice of weight comprised between 20 and 24 g. The products were administered orally, 60 minutes before the electroshock.

[5] = Antagonism of convulsions and of mortality caused by bicucullin; format: in vivo, mouse (CD Charles Rivers mice)
Procedure: as §1
The batches were constituted by 10 CD Charles Rivers mice of weights comprised between 20 and 22 g. The products were administered orally, 60 minutes before the bicucullin (0.8 mg/kg, i.v.).

[6] = Antagonism to the convulsions caused by 3-mercaptopropionic acid; format: in vivo, mouse (CD Charles Rivers mice); details: mouse, oral, 60 min before 3-mercaptopropionic acid 60 mg/kg s.c.; probit method, confidence limits in parentheses, p <= 0.05; read-out: Median effective dose (ED50) of antagonism to convulsions caused by 3-mercaptopropionic acid
Procedure: as §1
The batches were constituted by 10 CD Charles Rivers mice of weights comprised between 20 and 22 g. The products were administered orally 60 minutes before the 3-mercaptopropionic acid (60 mg/kg s.c.).

[7] = Mus musculus, po, read-out: Median effective dose (ED50) of the antagonism to the effects of bicucullin: Mortality
[8] = mouse, oral, 60 min before bicucullin 0.8 mg/kg i.v., probit method, confidence limits in parentheses, p < 0.05, read-out: Median effective dose (ED50) of the antagonism to the effects of bicucullin: Tonic convulsions

Structure (SMILES) | Locomotor activity, score percent/controls [1] | Effect on spontaneous motility (in words) [1] | mortality at 72 h ([2]; 250 mg/kg) | mortality at 72 h ([2]; 500 mg/kg) | mortality at 72 h ([2]; 1000 mg/kg) | Potentiation of pentobarbital, percent of animals in narcosis [3] | ED50 [3] | ED50 [4] | ED50 [5, 7] | ED50 [5, 8] | ED50 [6] | mortality at 72 h ([2]; 250 mg/kg p.os.) | mortality at 72 h ([2]; 500 mg/kg p.os.) | mortality at 72 h ([2]; 1000 mg/kg p.os.)
C[C@@H]1C[C@@H](Cc2cccs2)NC1=O (relative stereo) [SR 42008, 3-methyl-5-(2-thienyl-methyl)-2-pyrrolidinone] | -52% | sedative activity characterized by a considerable reduction in the motility | 0% | 0% | 0% | – | – | – | – | – | – | – | – | –
C[C@H]1C[C@@H](Cc2cccs2)NC1=O (relative stereo) [SR 42009, 3-methyl-5-(2-thienyl-methyl)-2-pyrrolidinone] | -23% | sedative activity characterized by a considerable reduction in the motility | 0% | 0% | 40% | – | – | – | – | – | – | – | – | –
CC1(C)CC(Cc2ccc(F)cc2)NC1=O (centres unmarked) [SR 41293, 3,3-dimethyl-5-[(4-fluoro-phenyl)-methyl]2-pyrrolidinone] | – | – | – | – | – | 80% | 56 mg/kg | 99 mg/kg | 41 mg/kg | 90 mg/kg | 20 mg/kg | 0% | 0% | 80%
CC1CC(Cc2ccc(Cl)cc2Cl)NC1=O (centres unmarked) [SR 41676] | -34% | sedative activity characterized by a considerable reduction in the motility | – | – | – | 100% | 48 mg/kg | – | – | – | 23 mg/kg | 0% | 0% | 0%
COc1ccc(CC2CC(C)(C)C(=O)N2)cc1OC (centres unmarked) [SR 41677] | – | – | – | – | – | 30% | – | – | – | – | – | 0% | 0% | –
CC1CC(Cc2ccccc2Cl)NC1=O (centres unmarked) [SR 41678] | +45% | stimulating effects of the motor activity | – | – | – | 30% | – | 44 mg/kg | – | 76 mg/kg | 53 mg/kg | 0% | 0% | 60%
CC1(C)CC(Cc2ccccc2F)NC1=O (centres unmarked) [SR 41680] | +99% | stimulating effects of the motor activity | – | – | – | – | – | 51 mg/kg | – | – | 54 mg/kg | 0% | 0% | –
COc1ccc(CC2CC(c3ccccc3)C(=O)N2)cc1OC (centres unmarked) [SR 41773] | – | – | – | – | – | – | – | – | – | – | – | 0% | 0% | –
CC1(C)CC(Cc2ccc(Cl)cc2)NC1=O (centres unmarked) [SR 41873] | – | – | – | – | – | 10% | – | 62 mg/kg | 85 mg/kg | 112 mg/kg | 48 mg/kg | 0% | 0% | –
CC1(C)CC(Cc2ccccc2Cl)NC1=O (centres unmarked) [SR 41880] | – | – | – | – | – | 40% | – | – | – | – | – | 0% | 0% | 20%
CC1CC(Cc2ccccc2F)NC1=O (centres unmarked) [SR 41881] | +41% | stimulating effects of the motor activity | – | – | – | 30% | – | 92 mg/kg | – | – | 46 mg/kg | 0% | 0% | 100%
CC1CC(Cc2ccc(F)cc2)NC1=O (centres unmarked) [SR 41882, 5[(4-fluoro-phenyl)-methyl]-3-methyl-2-pyrrolidinone] | – | – | – | – | – | 20% | – | – | – | – | 41 mg/kg | 0% | 0% | 100%
CCC1(C)CC(Cc2ccccc2F)NC1=O (centres unmarked) [SR 42001, 3-ethyl-5-[(2-fluoro-phenyl)-methyl]-3-methyl 2-pyrrolidinone] | – | – | – | – | – | 20% | – | – | 62 mg/kg | 83 mg/kg | – | 0% | 0% | 20%
CCC1(C)CC(Cc2ccc(F)cc2)NC1=O (centres unmarked) [SR 42002] | – | – | – | – | – | 50% | – | 49 mg/kg | – | ~100 mg/kg | 49 mg/kg | 0% | 0% | 100%
Cc1ccc(CC2CC(C)(C)C(=O)N2)cc1 (centres unmarked) [SR 42003] | – | – | – | – | – | – | – | – | – | – | – | 0% | 0% | 0%
CC1CC(Cc2c(F)cccc2Cl)NC1=O (centres unmarked) [SR 42004] | – | – | – | – | – | 30% | – | 34 mg/kg | > 100 mg/kg | ~100 mg/kg | 27 mg/kg | 0% | 0% | 0%
CC1CC(Cc2ccccc2)NC1=O (centres unmarked) [SR 42010] | – | – | – | – | – | – | – | 105 mg/kg | – | – | 44 mg/kg | 0% | – | –
CCCCC1([Si](C)(C)C)CC(Cc2ccccc2)NC1=O (centres unmarked) [SR 42133] | – | – | – | – | – | – | – | – | – | – | – | 0% | 0% | 0%
C[Si](C)(C)C1CC(Cc2ccccc2)NC1=O (centres unmarked) [SR 42134] | – | – | – | – | – | – | – | – | – | – | – | 0% | 0% | 0%
CC1CC(Cc2ccc(Cl)cc2)NC1=O (centres unmarked) [SR 42354] | – | – | – | – | – | – | – | 34 mg/kg | 66 mg/kg | 63 mg/kg | 40 mg/kg | 0% | 0% | –
CC1CC(Cc2cccc(C(F)(F)F)c2)NC1=O (centres unmarked) [SR 42401] | – | – | – | – | – | – | – | 39 mg/kg | 72 mg/kg | 62 mg/kg | – | 0% | 0% | –
CC1(C)CC(Cc2ccc(Cl)cc2Cl)NC1=O (centres unmarked) [SR 42508] | – | – | – | – | – | – | – | 50 mg/kg | 73 mg/kg | ~100 mg/kg | – | 0% | 0% | 0%
CC1CC(Cc2cccc(Cl)c2)NC1=O (centres unmarked) [SR 42717] | – | – | – | – | – | – | – | 41 mg/kg | 59 mg/kg | ~100 mg/kg | – | 0% | 0% | 100%
CC1(C)CC(Cc2cccc(C(F)(F)F)c2)NC1=O (centres unmarked) [SR 42725] | – | – | – | – | – | – | – | 34 mg/kg | 66 mg/kg | ~100 mg/kg | – | 0% | 0% | 0%
CC(C)C1CC(Cc2ccc(Cl)cc2)NC1=O (centres unmarked) [SR 42726] | – | – | – | – | – | – | – | 72 mg/kg | – | – | – | 0% | 0% | 20%
